From ChEMBL document CHEMBL1201862, “PubChem BioAssay data set” (2004)
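Exposure lasted 48 hours, with cells grown in 96-well plates and compounds tested at five concentrations. GI50: concentration for 50% inhibition of growth.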 Active and inactive are the calls of the source. Rule as the data show it: active = GI50 up to about 1.1 µM and inactive = higher.

Legend:
Experiment in all cases: DTP human tumour cell line panel, 48 h
XF498 = tested on: XF498
IGROV-1 = tested on: IGROV-1
OVCAR-5 = tested on: OVCAR-5
U-251 = tested on: U-251
HCC 2998 = tested on: HCC 2998
UACC-62 = tested on: UACC-62
HT-29 = tested on: HT-29
COLO 205 = tested on: COLO 205
Malme-3M = tested on: Malme-3M
SN12C = tested on: SN12C
786-0 = tested on: 786-0
OVCAR-8 = tested on: OVCAR-8
SK-OV-3 = tested on: SK-OV-3
RXF 393 = tested on: RXF 393
UO-31 = tested on: UO-31
SNB-19 = tested on: SNB-19
SW-620 = tested on: SW-620
T47D = tested on: T47D
MCF7 = tested on: MCF7
BT-549 = tested on: BT-549

| SMILES | GI50 (XF498) | GI50 (IGROV-1) | GI50 (OVCAR-5) | GI50 (U-251) | GI50 (HCC 2998) | GI50 (UACC-62) | GI50 (HT-29) | GI50 (COLO 205) | GI50 (Malme-3M) | GI50 (SN12C) | GI50 (786-0) | GI50 (OVCAR-8) | GI50 (SK-OV-3) | GI50 (RXF 393) | GI50 (UO-31) | GI50 (SNB-19) | GI50 (SW-620) | GI50 (T47D) | GI50 (MCF7) | GI50 (BT-549) |
| --- | --- | --- | --- | --- | --- | --- | --- | --- | --- | --- | --- | --- | --- | --- | --- | --- | --- | --- | --- | --- |
| O=S(=O)(N/N=C/c1ccc(/C=N/NS(=O)(=O)c2ccccc2)cc1)c1ccccc1 | 68.9 µM (inactive) | 37.9 µM (inactive) | 4.36 µM (inactive) | 41 µM (inactive) | > 100 µM (inactive) | 24.9 µM (inactive) | 59.6 µM (inactive) | 21.4 µM (inactive) | > 100 µM (inactive) | 42.6 µM (inactive) | 50.6 µM (inactive) | 42 µM (inactive) | > 100 µM (inactive) | 27.7 µM (inactive) | 63.2 µM (inactive) |  |  |  |  |  |
| Cn1cc(NC(=O)c2cc(NC(=O)CCCCCCCCCCC(=O)Nc3cc(C(=O)Nc4cc(C(=O)NCCC(=N)N)n(C)c4)n(C)c3)cn2C)cc1C(=O)NCCC(=N)N | > 100 µM (inactive) | 24.5 µM (inactive) | 67.3 µM (inactive) | 33 µM (inactive) | 19 µM (inactive) | 7.5 µM (inactive) | 29.1 µM (inactive) | 9.73 µM (inactive) | 2.18 µM (inactive) | 37.1 µM (inactive) | 23.6 µM (inactive) | 20.3 µM (inactive) | > 100 µM (inactive) | 17.8 µM (inactive) | > 100 µM (inactive) | 34.4 µM (inactive) | 17.9 µM (inactive) |  |  |  |
| CN1CCCc2nc3ccccc3n2C1 | > 100 µM (inactive) | > 100 µM (inactive) | > 100 µM (inactive) | > 100 µM (inactive) |  | > 100 µM (inactive) | > 100 µM (inactive) | > 100 µM (inactive) | > 100 µM (inactive) | > 100 µM (inactive) | > 100 µM (inactive) | > 100 µM (inactive) | > 100 µM (inactive) | > 100 µM (inactive) | > 100 µM (inactive) | > 100 µM (inactive) | > 100 µM (inactive) |  |  |  |
| Cc1cccc(C)c1NC(=O)C(=O)C(C#N)c1ccccc1 (stereo unspecified) | > 100 µM (inactive) | > 100 µM (inactive) | > 100 µM (inactive) | > 100 µM (inactive) | > 100 µM (inactive) | > 100 µM (inactive) | > 100 µM (inactive) | > 100 µM (inactive) | > 100 µM (inactive) | > 100 µM (inactive) | > 100 µM (inactive) | > 100 µM (inactive) | > 100 µM (inactive) | > 100 µM (inactive) | > 100 µM (inactive) | > 100 µM (inactive) | > 100 µM (inactive) |  |  |  |
| COC(=O)CCSC(=O)Nc1ccc(/N=N/c2ccccc2)cc1 | 37.5 µM (inactive) | 56.9 µM (inactive) | 71.1 µM (inactive) | 37.5 µM (inactive) | 23.6 µM (inactive) | 34.4 µM (inactive) | 68.5 µM (inactive) | 20.3 µM (inactive) | > 100 µM (inactive) | 69 µM (inactive) | 57.7 µM (inactive) | 45.8 µM (inactive) | > 100 µM (inactive) | > 100 µM (inactive) | 51.3 µM (inactive) | 32.1 µM (inactive) | > 100 µM (inactive) |  |  |  |
| CCCOc1ccc(/C(Cl)=C(\C=O)c2ccc(OC)c(OC)c2)cc1OCCC | 6.93 µM (inactive) | 27.9 µM (inactive) | 39.3 µM (inactive) | 5.73 µM (inactive) | 3.53 µM (inactive) | 3.52 µM (inactive) | 5.2 µM (inactive) | 4.22 µM (inactive) | 0.804 µM (active) | 9.89 µM (inactive) | 20.8 µM (inactive) | 11.9 µM (inactive) | 30.1 µM (inactive) | 3.28 µM (inactive) | 17.6 µM (inactive) | 23.1 µM (inactive) | 5.13 µM (inactive) |  |  |  |
| CCOc1ccc(C(CN2CCOCC2)C(C)=O)cc1OC (stereo unspecified) | 25.3 µM (inactive) | 25.2 µM (inactive) | 19 µM (inactive) | 18 µM (inactive) | 18.4 µM (inactive) | 17.3 µM (inactive) | 19.6 µM (inactive) | 6.62 µM (inactive) | 18.5 µM (inactive) | 17.4 µM (inactive) | 3.53 µM (inactive) | 20.1 µM (inactive) |  | 21 µM (inactive) | 14.6 µM (inactive) | 17.1 µM (inactive) | 16.4 µM (inactive) |  |  |  |
| COc1nc2c(nc(N)n2C2OCC(O)C(O)C2O)c(=O)n1C (stereo unspecified) | 41.8 µM (inactive) | > 100 µM (inactive) |  | > 100 µM (inactive) | > 100 µM (inactive) | > 100 µM (inactive) | > 100 µM (inactive) | > 100 µM (inactive) | > 100 µM (inactive) | > 100 µM (inactive) | > 100 µM (inactive) | > 100 µM (inactive) | > 100 µM (inactive) | > 100 µM (inactive) | > 100 µM (inactive) | > 100 µM (inactive) | > 100 µM (inactive) |  |  |  |
| Cc1cc(N(CCC#N)CCC#N)ccc1/C=C1/CN(N2C(=O)/C(=C/c3ccc(N(CCC#N)CCC#N)cc3C)N=C2c2ccccc2)C(c2ccccc2)=N1 | 36 µM (inactive) | > 100 µM (inactive) | > 100 µM (inactive) | 32 µM (inactive) | > 100 µM (inactive) | > 100 µM (inactive) | > 100 µM (inactive) | > 100 µM (inactive) | > 100 µM (inactive) | > 100 µM (inactive) | 54.3 µM (inactive) | > 100 µM (inactive) |  | 28.4 µM (inactive) | > 100 µM (inactive) | 41 µM (inactive) | > 100 µM (inactive) |  |  |  |
| CN1c2ccccc2N(C(=O)c2ccc(Cl)cc2)C(CC(=O)O)c2cccn21 (stereo unspecified) | > 100 µM (inactive) | > 100 µM (inactive) | > 100 µM (inactive) |  | > 100 µM (inactive) | > 100 µM (inactive) | > 100 µM (inactive) | > 100 µM (inactive) | > 100 µM (inactive) | > 100 µM (inactive) | > 100 µM (inactive) | > 100 µM (inactive) | > 100 µM (inactive) | > 100 µM (inactive) | > 100 µM (inactive) | > 100 µM (inactive) | > 100 µM (inactive) |  |  |  |
| CN(CCCNC(=O)c1nn(-c2ccccc2)c2c1Cc1ccccc1-2)CCCNC(=O)c1nn(-c2ccccc2)c2c1Cc1ccccc1-2 |  | 1.51 µM (inactive) | 1.75 µM (inactive) | 1.7 µM (inactive) | 1.42 µM (inactive) | 1.77 µM (inactive) | 1.73 µM (inactive) | 1.45 µM (inactive) | 1.5 µM (inactive) | 1.76 µM (inactive) | 1.65 µM (inactive) | 1.73 µM (inactive) | 1.72 µM (inactive) | 1.75 µM (inactive) | 1.61 µM (inactive) | 1.61 µM (inactive) | 1.31 µM (inactive) | 1.92 µM (inactive) | 1.63 µM (inactive) | 1.56 µM (inactive) |
| N#C/C(=C\c1ccccc1Br)C(=O)c1ccccc1 | > 50.2 µM (inactive) | > 10 µM (inactive) | > 61.7 µM (inactive) | > 48.3 µM (inactive) | > 95.7 µM (inactive) | 29.5 µM (inactive) | > 57.7 µM (inactive) | > 65.9 µM (inactive) | > 53.1 µM (inactive) | > 43.3 µM (inactive) | 15.8 µM (inactive) | 11.1 µM (inactive) | > 100 µM (inactive) | 32.9 µM (inactive) | > 38.5 µM (inactive) | 20.4 µM (inactive) | 2.04 µM (inactive) |  |  |  |
| Cc1cccc(NC(=O)c2cc3cc(/N=N/c4ccccc4Cl)ccc3oc2=O)c1 | 24.2 µM (inactive) | 32.1 µM (inactive) | 23.4 µM (inactive) | 26.5 µM (inactive) | 26.1 µM (inactive) | 16.3 µM (inactive) | 38.2 µM (inactive) | 57.7 µM (inactive) | 45.4 µM (inactive) | 30.2 µM (inactive) | 26.9 µM (inactive) | 27 µM (inactive) | 88.7 µM (inactive) | 33.1 µM (inactive) | 13.3 µM (inactive) | 49 µM (inactive) | 54.1 µM (inactive) |  |  |  |
| O=S1(=O)OCCOS(=O)(=O)C1Cc1ccccc1 | 19.2 µM (inactive) | 28.8 µM (inactive) | > 100 µM (inactive) | 24.4 µM (inactive) | 20 µM (inactive) | 40.8 µM (inactive) | 63.5 µM (inactive) | 19.1 µM (inactive) | > 100 µM (inactive) | 46.1 µM (inactive) | 32.5 µM (inactive) | 70.1 µM (inactive) | > 100 µM (inactive) | 41.1 µM (inactive) | 57.8 µM (inactive) | 70.3 µM (inactive) | 65 µM (inactive) |  |  |  |
| O[C@@]1(c2cccs2)c2cccc(Cl)c2[C@](O)(c2cccs2)c2cccc(Cl)c21 |  | 16.3 µM (inactive) | 16.2 µM (inactive) | 16.8 µM (inactive) | 17.6 µM (inactive) | 11 µM (inactive) | 17.2 µM (inactive) | 19.5 µM (inactive) | 17.8 µM (inactive) | 17.9 µM (inactive) | 16.4 µM (inactive) | 55.7 µM (inactive) | 22.6 µM (inactive) | 16.3 µM (inactive) | 46.7 µM (inactive) | 26.7 µM (inactive) | 17.3 µM (inactive) | 32.9 µM (inactive) | 18.5 µM (inactive) | 19.2 µM (inactive) |
| COc1ccc(C(=O)Nc2ccc3oc(-c4ccccc4)nc3c2)cc1 |  | > 100 µM (inactive) | > 100 µM (inactive) | 61.7 µM (inactive) | > 100 µM (inactive) | > 100 µM (inactive) | > 100 µM (inactive) | > 100 µM (inactive) | > 100 µM (inactive) | > 100 µM (inactive) | 92.7 µM (inactive) | 22.3 µM (inactive) | 56.4 µM (inactive) | > 100 µM (inactive) | 0.227 µM (active) | 50.5 µM (inactive) | > 100 µM (inactive) | > 100 µM (inactive) | > 100 µM (inactive) | > 100 µM (inactive) |
